This note sets out measurements from US10704076B2, “Multi-tiered high through-put screen for compounds effective against bacterial biofilm and compounds effective for inhibiting and eradicating bacterial biofilm” (University of Cincinnati, priority 2013, dated 2020).

The subject of this series is differentiated THP-1 cells. Briefly: LDH cytotoxicity assay. It is filed as cell-based. To be noted: 48 hr. As to the method:
Following identification as an HTS broad spectrum hit and confirmation by CLSM, a cytotoxicity assay was performed on compounds 3, 7, 8 and 11. The lactate dehydrogenase assay (LDH) is commonly used as an enzymatic marker to quantitatively correlate cell death via leakage of the enzyme from dead or dying cells. An LDH assay was used to investigate the toxicity of compounds on A549 and differentiated THP-1 cells. […] Finally, 25 μl of Stop Solution was added, incubated at room temperature for 5 min, and the fluorescence signal was detected using a Synergy 2 Multi-Mode Microplate Reader (Ex. […]/Em. 590). The unit of measurement is the Relative Fluorescence Unit (RFU). The cytotoxicity of the compounds was calculated based on the percentage of compound RFUs measured (Experimental) in comparison to the RFU of the DMSO treated cells as those that were completely lysed (Maximum LDH Release). […]
The cytotoxicity of the broad agent hit compounds was examined in differentiated human THP-1, a human acute monocytic leukemia cell line and A549, a human lung adenocarcinoma epithelial cell line. […] Compounds were assessed at varying concentrations of 0, 260, 290, 300, and 570 μM for compounds 7, 11, 8, and 3, respectively, for the cytotoxicity assays. […]

As to `Cn1sc(Cl)c(C#N)c1=O` [Compound 3, 5-chloro-2-methyl-3-oxo-1,2-thiazole-4-carbonitrile], the “cytotoxicity (LDH)” value (57 μM) was determined as 60%. Also, the “cytotoxicity (LDH), change against 57 μM” value (570 μM) is given as “decreased”.
